Where “and” joins values, the source holds several entries; their conditions need not be identical. Equal entries are not always repeated. Where two headings read alike, the source gives them in different places.
Assays:
[1] = Urine PPTN concentration after single bolus intravenous injection; type: in vivo; settings: male rats; single bolus intravenous injection 0.85, 2.9 or 8.5 mg/kg
Experimental: The pharmacokinetics of PPTN (KB-1801) in male rats receiving single bolus intravenous injections of SBECD-containing solutions were analyzed. Three cohorts of four rats each were given a single dose of PPTN (KB-1801) at 0.85 mg/kg, 2.9 mg/kg, or 8.5 mg/kg in 1 mL dosing volume.

[2] = Solubility of PPTN at pH ranges suitable for intravenous injection; type: physicochemical
Experimental: The solubility of PPTN at pH ranges suitable for intravenous injection was analyzed. PPTN (HCl salt) was dissolved in DMSO to make a stock solution, and the stock solution was diluted into various aqueous solutions. […] The solutions were then adjusted to achieve a pH ≥5.0, and the solutions were observed again.

[3] = Loss of PPTN due to adherence to surfaces of vessels; type: physicochemical; settings: 200 ng/ml PPTN, no solubilizing agent; Control 48 h, glass scintillation vial
[4] = TPGS enhancement of solubility of PPTN at neutral pH; type: physicochemical
Experimental: α-Tocopherol polyethylene glycol succinate (TPGS) was tested for enhancement of solubility of PPTN at neutral pH. A solution containing 5 mg/mL PPTN and 4% TPGS was made by mixing components as indicated in Table 5 with stirring and heating.
To create a solution suitable for in vitro studies, the solution containing 5 mg/mL PPTN and 4% TPGS created above was diluted into phosphate-buffered saline by mixing components as indicated in Table 6.

[5] = Potency and purity of diluted dosing solutions after manufacture and shipping; type: physicochemical; settings: for [KB-1801] determined by HPLC assay: shipped at ambient temperature
Experimental: The stability of high-concentration PPTN solutions containing SBECD were analyzed under conditions used for product manufacturing and distribution. A stock solution containing 8.6 mg/mL PPTN, 12% SBECD in saline was prepared as described above and shipped under refrigerated conditions. Seven days after manufacture, the stock solution was diluted to make dosing solutions for administration as a continuous intravenous infusion as indicated in Table 14 and Table 15.
Samples of diluted dosing solutions were shipped at ambient temperature and analyzed for PPTN (KB-1801) potency and purity.

[6] = Urine concentrations, 72-hour continuous intravenous infusion; type: in vivo, Sprague-Dawley rats; settings: individual animals; for Total amount in urine: all intervals
Experimental: The safety and pharmacokinetics of PPTN (KB-1801) in rats receiving continuous intravenous injections of SBECD-containing solutions were analyzed. Three cohorts of six male and six female rats each were given continuous intravenous infusion of PPTN (KB-1801) at 10 mg/kg/day, 30 mg/kg/day or 100 mg/kg/day in a dosing solution containing PPTN at 0.25 mg/mL, 0.75 mg/mL or 2.5 mg/mL and SBECD at about 3.8%. Dosing volume was 40 mIkg/day.

[7] = Solubility of PPTN in various aqueous and organic solvents; type: physicochemical; settings: thermodynamic from solid, PPTN HCl salt, room temperature, read-out: Solubility Estimate
Experimental: The solubility of PPTN in various aqueous and organic solvents was tested. Test media were prepared, and 5 mg/mL solid PPTN (HCl salt) was added at room temperature. If all PPTN dissolved under these conditions, additional PPTN was added to a total of 10 mg/mL. After 24 hours, undissolved material was removed, and the concentration of PPTN in the supernatant was analyzed by HPLC.

[8] = dosing solution, targeted [KB-1801] 0.25 mg/mL
[9] = dosing solution, targeted [KB-1801] 0.75 mg/mL
[10] = dosing solution, targeted [KB-1801] 2.5 mg/mL
[11] = 72-hour IV infusion 10 mg/kg/day, male rats, interval 0-4 h
[12] = 72-hour IV infusion 10 mg/kg/day, male rats, interval 4-9 h
[13] = 72-hour IV infusion 10 mg/kg/day, male rats, interval 20-24 h
[14] = 72-hour IV infusion 10 mg/kg/day, male rats, interval 44-48 h
[15] = 72-hour IV infusion 10 mg/kg/day, male rats, interval 68-72 h
[16] = 72-hour IV infusion 10 mg/kg/day, male rats, interval 92-96 h

## O=C(O)c1cc(-c2ccc(C3CCNCC3)cc2)c2ccc(-c3ccc(C(F)(F)F)cc3)cc2c1 [KB-1801, 4-[4-(piperidin-4-yl)phenyl]-7-[4-(trifluoromethyl)phenyl]-2-naphthoic acid]
[1]
  Urine concentration compared with plasma: in excess of plasma concentrations
[2]; 0.015 mg/mL (~29 μM), 1.5 mg DMSO stock solution diluted 100x in water, pH 4-5
  Solution appearance at 24 hours: Clear
[2]; 1.0 mg/mL, DMAc/Water (10/90, v/v), initial pH ~2
  Remarks when pH adjusted to 5-5.5: Became cloudy
[2]; 5.0 mg/mL, 1.5 mg DMSO stock solution diluted 100x in PBS (20 mM), pH 5-6
  Solution appearance at 24 hours: Hazy
[2]; 5.0 mg/mL, DMAc/Water (10/90, v/v) with ~0.1% Tween 80, after sonication
  Remarks when pH adjusted to 5-5.5, after sonication: became clear
[2]; 5.0 mg/mL, DMAc/Water (10/90, v/v) with ~0.1% Tween 80, initial pH 1-2
  Remarks when pH adjusted to 5-5.5: Became slightly cloudy;
[2]; 5.0 mg/mL, DMAc/Water (10/90, v/v), initial pH 1-2
  Remarks when pH adjusted to 5-5.5: Became very cloudy
[2]; 5.0 mg/mL, NMP/Water (10/90, v/v), initial pH 1-2
  Remarks when pH adjusted to 5-5.5: Became very cloudy
[2]; 5.0 mg/mL, Propylene Glycol/Water (10/90, v/v), initial pH 1-2
  Remarks when pH adjusted to 5-5.5: Became very cloudy
[3]
  % recovery vs. standard: 26%
[4]; 100 μM KB-1801, 0.04 wt % TPGS in buffered saline
  Solution pH (final): Final pH: 7.4
[4]; 100 μM KB-1801, 0.04 wt % TPGS in buffered saline (5 mg/ml solution diluted 100x)
  Solution appearance: Resulting clear solution
[4]; 5 mg/mL KB-1801, 4 wt % TPGS, after phosphate buffer 20 mM pH 8.3
  Solution appearance: Resulting clear
[4]; 5 mg/mL KB-1801, 4 wt % TPGS, phosphate buffer, buffered saline
  Solution pH (final): Final pH: 7.0-7.4
[4]; 5 mg/mL KB-1801 with TPGS solution, 4 wt %, stirring and heating
  Solution appearance: Resulting clear
[5]; all dosing solution samples
  Concentration higher than target concentrations: 1.6-8.0%
  Degradation products: No evidence of degradation products was observed in any sample
[5]; [8]
  Impurity profile by HPLC area %: No imp > 0.10 a %
  [KB-1801] determined by HPLC assay: 0.27 mg/mL and 0.26 mg/mL
[5]; [9]
  Impurity profile by HPLC area %: No imp > 0.10 a %
  [KB-1801] deviation from targeted concentration: +1.3%
  [KB-1801] determined by HPLC assay: 0.76 mg/mL
[5]; [10]
  Impurity profile by HPLC area %: No imp > 0.10 a %
  [KB-1801] determined by HPLC assay: 2.56 mg/mL and 2.57 mg/mL
[6]; 72-hour IV infusion 10 mg/kg/day, female rats
  Total amount in urine: 27.3 µg and 16.4 µg and 10.5 µg and 18.5 µg and 20.9 µg and 29.4 µg
[6]; 72-hour IV infusion 10 mg/kg/day, male rats
  Total amount in urine: 54.2 µg and 46.1 µg and 62.5 µg and 83.7 µg and 74.4 µg and 60.9 µg
[6]; [11]
  Amount in urine: 6.09 µg and 4.08 µg
  Urine Conc.: 6.09 µg/mL and 8.16 µg/mL and 3.50 µg/mL and 7.91 µg/mL
[6]; [12]
  Amount in urine: 11.5 µg and 5.46 µg and 8.50 µg and 6.95 µg
  Urine Conc.: 7.64 µg/mL and 5.46 µg/mL and 17.0 µg/mL and 6.95 µg/mL and 15.8 µg/mL
[6]; [13]
  Amount in urine: 20.7 µg and 10.0 µg and 7.20 µg and 30.9 µg
  Urine Conc.: 20.7 µg/mL and 20.1 µg/mL and 24.0 µg/mL and 10.3 µg/mL and 19.4 µg/mL
[6]; [14]
  Amount in urine: 2.48 µg and 14.1 µg and 22.9 µg
  Urine Conc.: 24.8 µg/mL and 14.1 µg/mL and 45.9 µg/mL and 13.7 µg/mL
[6]; [15]
  Amount in urine: 19.3 µg and 23.2 µg and 28.5 µg and 22.7 µg
  Urine Conc.: 19.3 µg/mL and 23.2 µg/mL and 28.5 µg/mL and 22.7 µg/mL and 20.9 µg/mL
[6]; [16]
  Amount in urine: 0.07 µg and 0.15 µg and 1.23 µg and 0.08 µg and 0.18 µg
  Urine Conc.: 0.13 µg/mL and 0.10 µg/mL and 0.62 µg/mL and 0.20 µg/mL and 0.09 µg/mL and 0.07 µg/mL
[6]; 72-hour IV infusion 30 mg/kg/day, female rats
  Total amount in urine: 75.7 μg and 78.9 μg (2×) and 66.9 μg and 80.5 μg and 131.7 μg
[6]; 72-hour IV infusion 30 mg/kg/day, male rats
  Total amount in urine: 188.0 µg and 165.1 µg and 250.3 µg and 108.4 µg and 87.4 µg and 332.4 µg
[6]; 72-hour IV infusion 100 mg/kg/day, female rats
  Total amount in urine: 251.8 µg and 191.6 µg and 78.7 µg and 198.3 µg and 151.4 µg and 353.9 µg
[6]; 72-hour IV infusion 100 mg/kg/day, male rats
  Total amount in urine: 337.1 µg and 155.1 µg and 785.2 µg and 453.6 µg and 537.2 µg and 438.9 µg
[7]; organic solvent or mixture, DMAc, pH 1-2
  solubility at 24 h: > 100 mg/mL
[7]; organic solvent or mixture, NMP, pH 1-2
  solubility at 24 h: > 100 mg/mL
[7]; organic solvent or mixture, PEG 400, pH ~2
  solubility at 24 h: ~25 mg/mL
[7]; organic solvent or mixture, ethanol, pH ~2
  solubility at 24 h: 25 to 30 mg/mL
[7]; organic solvent or mixture, propylene glycol, pH ~2
  solubility at 24 h: 40 to 50 mg/mL
[7]; water with 1% DMAc, water w/ 1% DMAc, pH 2-3, 24 hours
  solubility at 24 h: 0.1 to 0.5 mg/mL

— patent US20220202799A1, “PHARMACEUTICAL FORMULATIONS CONTAINING P2Y14 ANTAGONISTS” (priority 2019, published 2022)
